“And” between values parts separate entries of the source, which are not always exact repeats. Identical values can stand only once.
Legend:
Settings in all cases: incubation time: 72 h
DU-4475 [1] = experiment: normalised viability (% of control), CellTiter-Blue; higher = more viable cells (about 100 = DMSO control)
In short: (§1)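 The reported figure is normalised viability at a single listed concentration of the series. Breast cancer cell lines (20 µl suspension) went onto 384-well plates holding compound in 5 µl medium for 72 h. CellTiter-Blue (2.5 µl, 2 h, 37 °C) was read by fluorescence at 560/590 nm, and each plate was scaled to vehicle at 100 and a positive kill control at 0.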

MDA-MB-231 [2] = experiment: as above
In short: as §1

CAL-120 [3] = experiment: as above
In short: as §1

CAL-51 [4] = experiment: as above
In short: as §1

MFM-223 [5] = experiment: as above
In short: as §1

BT-549 [6] = experiment: as above
In short: as §1

HCC1143 [7] = experiment: as above
In short: as §1

HCC1937 [8] = experiment: as above
In short: as §1

SK-BR-3 [9] = experiment: as above
In short: as §1

Hs578T = experiment: as above
In short: as §1

MDA-MB-436 [10] = experiment: as above
In short: as §1

CAL-85-1 [11] = experiment: as above
In short: as §1

DU-4475 [12] = experiment: drug sensitivity score (DSS), CellTiter-Glo (DSS (AUC-based score)); higher = stronger drug effect (viability inhibition or cytotoxicity); extreme values may be limits of the assay
In short: (§2)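 The drug sensitivity score was computed from the area under the fitted dose-response curve. Breast cancer cell lines in 20 µl suspension went into 384-well plates holding compound at 5 concentrations (10-fold steps over a 10,000-fold, compound-specific range) for 72 h of incubation. CellTox Green fluorescence (485/520 nm) was read before CellTiter-Glo luminescence, the latter after 10 min at room temperature, and each plate was normalised to 0.1 % DMSO and a positive kill control.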

MDA-MB-231 [13] = experiment: as above
In short: as §2

CAL-120 [14] = experiment: as above
In short: as §2

HCC1599 = experiment: as above
In short: as §2

CAL-51 [15] = experiment: as above
In short: as §2

BT-474 = experiment: as above
In short: as §2

MFM-223 [16] = experiment: as above
In short: as §2

BT-549 [17] = experiment: as above
In short: as §2

HCC1143 [18] = experiment: as above
In short: as §2

HCC1937 [19] = experiment: as above
In short: as §2

MDA-MB-453 = experiment: as above
In short: as §2

SK-BR-3 [20] = experiment: as above
In short: as §2

MCF-10A = experiment: as above
In short: as §2

CAL-148 = experiment: as above
In short: as §2

MDA-MB-436 [21] = experiment: as above
In short: as §2

CAL-85-1 [22] = experiment: as above
In short: as §2

Structure (SMILES) | normalised viability (DU-4475 [1]; 30 nM) | normalised viability (MDA-MB-231 [2]; 1000 nM) | normalised viability (CAL-120 [3]; 1000 nM) | normalised viability (CAL-51 [4]; 30 nM) | normalised viability (MFM-223 [5]; 1000 nM) | normalised viability (BT-549 [6]; 1000 nM) | normalised viability (HCC1143 [7]; 1000 nM) | normalised viability (HCC1937 [8]; 1000 nM) | normalised viability (SK-BR-3 [9]; 1000 nM) | normalised viability (Hs578T; 1000 nM) | normalised viability (MDA-MB-436 [10]; 1000 nM) | normalised viability (CAL-85-1 [11]; 30 nM) | drug sensitivity score (DU-4475 [12]) | drug sensitivity score (MDA-MB-231 [13]) | drug sensitivity score (CAL-120 [14]) | drug sensitivity score (HCC1599) | drug sensitivity score (CAL-51 [15]) | drug sensitivity score (BT-474) | drug sensitivity score (MFM-223 [16]) | drug sensitivity score (BT-549 [17]) | drug sensitivity score (HCC1143 [18]) | drug sensitivity score (HCC1937 [19]) | drug sensitivity score (MDA-MB-453) | drug sensitivity score (SK-BR-3 [20]) | drug sensitivity score (MCF-10A) | drug sensitivity score (CAL-148) | drug sensitivity score (MDA-MB-436 [21]) | drug sensitivity score (CAL-85-1 [22]) | normalised viability (DU-4475 [1]; 3 nM) [%] | normalised viability (MDA-MB-231 [2]; 100 nM) [%] | normalised viability (CAL-120 [3]; 100 nM) [%] | normalised viability (CAL-51 [4]; 3 nM) [%] | normalised viability (MFM-223 [5]; 100 nM) [%] | normalised viability (BT-549 [6]; 100 nM) [%] | normalised viability (HCC1143 [7]; 100 nM) [%] | normalised viability (HCC1937 [8]; 100 nM) [%] | normalised viability (SK-BR-3 [9]; 100 nM) [%] | normalised viability (Hs578T; 100 nM) [%] | normalised viability (MDA-MB-436 [10]; 100 nM) [%] | normalised viability (CAL-85-1 [11]; 3 nM) [%]
Cc1ccc(NC(=O)c2ccc(CN3CCN(C)CC3)cc2)cc1Nc1nccc(-c2cccnc2)n1 [Imatinib] | 104% and 85.4% | 92.1% and 110% | 86.6% and 91.9% | 106% and 99.3% | 104% and 100% | 95.8% and 88.7% | 85.9% and 97% | 80.5% and 85.3% | 103% and 115% | 100% and 103% | 74.6% and 90.3% | 91.2% and 88% | 0 | 0 | 0 | 0 | 1.42 | 0 | 0 | 0 | 0 | 0 | 0.32 | 0 | 0 | 0 | 0 | 0 | – | – | – | – | – | – | – | – | – | – | – | –
C/C(=C\c1csc(C)n1)[C@@H]1C[C@@H]2O[C@]2(C)CCC[C@H](C)[C@H](O)[C@@H](C)C(=O)C(C)(C)[C@@H](O)CC(=O)O1 [Patupilone] | – | – | – | – | – | – | – | – | – | – | – | – | 6.14 | 6.83 | 5.48 | 2.26 | 19.1 | 5.69 | 3.26 | 20.5 | 13.5 | 0.309 | 5.87 | 15.1 | 8.33 | 10.2 | 15 | 16.3 | 89.2 | 20.1 | 23.2 | 103 | 45.9 | 27.2 | 34.3 | 10.9 | 15.8 | 14.1 | 39.5 | 49.4
CNNCc1ccc(C(=O)NC(C)C)cc1 [Procarbazine] | 107% | 119% | 99% | 106% | 95.5% | 98.8% | 105% | 77.8% | 113% | 103% | 88.8% | 87.4% | 0 | 0 | 0 | 0 | 0 | 0 | 0 | 0 | 0 | 0 | 0 | 0 | 0 | 0 | 0 | 0 | – | – | – | – | – | – | – | – | – | – | – | –
CN(C)C[C@@H]1CCn2cc(c3ccccc32)C2=C(C(=O)NC2=O)c2cn(c3ccccc23)CCO1 [Ruboxistaurin] | 92.3% | 88.2% | 110% | 101% | 80.8% | 87.6% | 109% | 74% | 86.6% | 99.8% | 49.2% | 105% | 3.25 | 6.63 | 0 | 0 | 6.02 | 7 | 4.27 | 6.4 | 3 | 3.65 | 6.05 | 7.58 | 3.64 | 8.61 | 6.47 | 5.13 | – | – | – | – | – | – | – | – | – | – | – | –
CN1CCN(CCOc2cc(OC3CCOCC3)c3c(Nc4c(Cl)ccc5c4OCO5)ncnc3c2)CC1 [Saracatinib] | 96.3% | 61.6% | 71.9% | 103% | 102% | 85.9% | 70.6% | 85% | 90% | 93.8% | 117% | 82.6% | 0 | 8.36 | 2.85 | 2.67 | 5.08 | 6.52 | 0 | 3.75 | 2.8 | 3.31 | 3.51 | 2.63 | 13.4 | 1.84 | 0.426 | 8.75 | – | – | – | – | – | – | – | – | – | – | – | –
Cn1cncc1[C@@](N)(c1ccc(Cl)cc1)c1ccc2c(c1)c(-c1cccc(Cl)c1)cc(=O)n2C [Tipifarnib] | 69.3% | 61.4% | 47.4% | 95.5% | 67.7% | 75.8% | 59.1% | 43.6% | 66.1% | 69.2% | 82.9% | 70.1% | 8.37 | 0 | 3.76 | 1.29 | 11.4 | 4.08 | 6.28 | 5.49 | 0 | 6.28 | 10.3 | 11.9 | 2.13 | 7.28 | 10.2 | 1.05 | – | – | – | – | – | – | – | – | – | – | – | –
O=C1NC(=O)[C@@H](c2cn3c4c(cccc24)CCC3)[C@@H]1c1c[nH]c2ccccc12 [Tivantinib] | – | – | – | – | – | – | – | – | – | – | – | – | 0.839 | 1.39 | 0.91 | 0.956 | 1.38 | 0.701 | 0 | 2.94 | 2.06 | 0 | 4.48 | 4.51 | 1.72 | 1.93 | 2.69 | 3.66 | 89.2 | 105 | 79.8 | 104 | 87.2 | 96.5 | 93 | 64.6 | 99.9 | 114 | 56.6 | 95.7
CC[C@]1(O)C[C@H]2CN(CCc3c([nH]c4ccccc34)[C@@](C(=O)OC)(c3cc4c(cc3OC)N(C=O)[C@H]3[C@@](O)(C(=O)OC)[C@H](OC(C)=O)[C@]5(CC)C=CCN6CC[C@]43[C@@H]65)C2)C1 [Vincristine] | 48.9% | 14.3% | 19.2% | 72.1% | 28.1% | 16.2% | 35.8% | 15.1% | 17.2% | 16.8% | 39.5% | 33% | 6.4 | 11.5 | 11.1 | 20 | 11.7 | 11.5 | 11.6 | 21.1 | 13.6 | 7.53 | 10.5 | 27.7 | 10.1 | 12.7 | 17.1 | 19.2 | 94.7 | 15.5 | 19.3 | 99 | 40.2 | 22.3 | 38.8 | 13.8 | 17.1 | 17.7 | 35.4 | 89.9

— the supplement of paper PMC4862054
